Reference: patent US20220282304A1, “SAME-SAMPLE ANTIBIOTIC SUSCEPTIBILITY TEST AND RELATED COMPOSITIONS, METHODS AND SYSTEMS” (CALIFORNIA INSTITUTE OF TECHNOLOGY, priority 2021, published 2022)

Experiments:
[1] = tested on: Escherichia coli isolate; test: Digital same-sample filtration AST, one treated and one concurrent reference condition (Example 5); type: cell-based; conditions: 1.0 μg/mL ETP; for lysed cells detected: all detected treated cells lysed
Method: The inoculum was small enough that no detectable difference in the sample's optical density at 600 mm (OD600) was detectable by a spectrophotometer with a sensitivity of 0.01 absorbance units. After an incubation at 37° C., the media became turbid with an OD600 of 0.18 absorbance units after 3 hours of incubation.
(§1) In this experiment, the number and volume of sample partitions was restricted, for logistical reasons, to 96 partitions 10 μL, in volume, specifically the wells of a 96-well plate. A goal was chosen of having a >98% chance of ending up with at least 48 empty partitions. When all partitions are the same volume, the following formula relates the expected number of empty partitions, the partition volume, and the density of cells.
(§2) N is the total number of partitions, n is the number of empty partitions, V is the partition volume, D is the density of cells, and t is a threshold probability chosen by the practitioner. Thus, in order to achieve digital sample partitioning with the available 96-well plate, the contrived clinical specimen was diluted to a cell density of 0.0375 cells/μL. Each 10 μL sample of the specimen would then contain 0.375 cells on average.
(§3) To begin the AST protocol, the contrived clinical specimen was physically split into the 96 partitions by transferring 10 μL of the sample, in 96 separate transfers (actually 12 transfers with a multichannel pipette), to 96 wells of a microtiter plate. Each well contained 15 μL of Mueller-Hinton Broth (MHB) growth media. Half of the wells (48) contained 0 μg/mL of dissolved ETP antibiotic and served as reference condition antibiotic exposures. The other half of the wells contained 1.67 μg/mL of ETP (for a final concentration of 1.0 μg/mL) and served as 48 treated condition antibiotic exposures. The 96 antibiotic exposures were incubated at 37° C. for 70 minutes.
The entire volume of each antibiotic exposure was transferred to a Millipore® 96-well sterile polystyrene MultiScreenHTS® filter plate (Millipore-Sigma MSGVS2210). Each well of the filter plate contained a hydrophilic polyvinylidene fluoride (PVDF) filter membrane with a 0.22 μm pore size. The antibiotic exposures were centrifuged at 2200 relative centrifugal force to speed the passage of the antibiotic exposure through the filter and into 96 collecting vessels. The collected fluid was called the “filtrate.”
(§4) 50 μL of fresh MHB media was spun through the filters after the first centrifugation (above) to wash away residual extracellular nucleic acids present in the fluid wetting the filters. This wash fluid is not collected with the filtrates.
10 μL of each of the filtrates was added to and mixed with 10 μL of Lucigen DNA Extraction Buffer, heated to 65° C. for 6 minutes, then heated to 98° C. for 4 minutes.
20 μL of DNA Extraction Buffer was placed on top of the filters. The filter plate was heated to 65° C. for 6 minutes, shaking at 700 rpm, on a ThermoMixer® flat surface heating block. Then, the filter plate was taped to a clean 96-well polypropylene microtiter plate and centrifuged at 2000 rcf for 2 minutes. The DNA Extraction Buffer fluid that flowed through the filter was collected in the microtiter plate below the filter plate. Next, the microtiter plate was heated to 98° C. for 4 minutes inside a BioRad thermocycler. These collected and heated fluid volumes are termed the “lysates” which comprise intracellular nucleic acid.
Separately, for each of the 96 extracted filtrates and for each of the 96 extracted lysates, 1.00 μL of the extracted filtrate was mixed with 0.02 μL of 3 U/mL Lucigen® RapiDxFire thermostable reverse transcriptase, 0.2 μL of Lucigen® RapiDxFire 10× thermostable buffer, 0.1 μL of 10 mM deoxyribonucleic acid nucleotides, 0.6 μL of deionized water, and 0.08 μL of a 10 μM aqueous solution of DNA primer, according to manufacturer's instructions, to create a reverse transcription reaction with a total volume of 2.0 μL. […]

[2] = tested on: carbapenem-resistant Escherichia coli isolate; test: Digital same-sample filtration AST, one treated and one concurrent reference condition (Example 6); type: cell-based
Method: The inoculum was small enough that no detectable difference in the sample's optical density at 600 mm (OD600) was detectable by a spectrophotometer with a sensitivity of 0.01 absorbance units. The OD600 of the culture measured every 30 minutes after the culture was incubated at 37° C. to calculate the doubling time of the strain. The media became turbid with an OD600 of 0.28 absorbance units after 3.1 hours of incubation.
as §1, §2
as §3, with “sample” for “specimen”, “exposures.” for “exposures. The 96 antibiotic exposures were incubated at 37° C. for 70 minutes.”
The 96 antibiotic exposures were incubated at 37° C. for 40 minutes.
The entire volume of each antibiotic exposure was transferred to a Millipore® 96-well sterile polystyrene MultiScreenHTS® filter plate (Millipore-Sigma MSGVS2210). Each well of the filter plate contained a hydrophilic polyvinylidene fluoride (PVDF) filter membrane with a 0.22 μm pore size. The antibiotic exposures were centrifuged at 2200 relative centrifugal force to speed the passage of the antibiotic exposure through the filter and into 96 collecting vessels. The collected fluid was called the “filtrate.” It is expected that the filtrate will contain all or most of the extracellular nucleic acids present in the antibiotic exposure, but none of the intracellular nucleic acids in the antibiotic exposure.
as §4
10 μL of each of the filtrates was added to and mixed with 10 μL of Lucigen DNA Extraction Buffer, heated to 65° C. for 6 minutes, then heated to 98° C. for 4 minutes to create extracted filtrates.
20 μL of DNA Extraction Buffer was placed into all of the wells of the filter plate, on top of the filters. The filter plate was heated to 65° C. for 6 minutes, shaking at 700 rpm, on a ThermoMixer® flat surface heating block. Then, the filter plate was taped to a clean 96-well polypropylene microtiter plate and centrifuged at 2000 rcf for 2 minutes. The DNA Extraction Buffer fluid that flowed through the filter was collected in the microtiter plate below the filter plate. Next, the microtiter plate was heated to 98° C. for 4 minutes inside a BioRad thermocycler. These collected and heated fluid volumes are termed the “extracted lysate”. […]

[3] = 1.0 μg/mL ETP, 40 minutes, assuming exponential division, doubling time approximately 30 minutes
[4] = 1.0 μg/mL ETP, 40 minutes, simple estimate
[5] = Treated 1.0 μg ETP, 40 minutes 37° C., 48 partitions, ddPCR

C[C@@H](O)[C@H]1C(=O)N2C(C(=O)O)=C(S[C@@H]3CN[C@H](C(=O)Nc4cccc(C(=O)O)c4)C3)[C@H](C)[C@H]12 [ETP, ertapenem]
percent extracellular of detected antibiotic-treated cells (lysis) ([1]; 70 minutes 37° C., qPCR 23S rRNA, 96 partitions): 100% | susceptibility call (Fisher's exact test) ([1]; 70 minutes, ddPCR): susceptible | percent extracellular of detected antibiotic-treated cells (lysis) ([1]; 70 minutes, ddPCR 23S rRNA, 56 of the 96 partitions): 100% | lysed cells detected ([1]; 70 minutes, ddPCR, 56 of the 96 partitions): 9 | susceptibility call (Fisher's exact test) ([1]; 70 minutes, qPCR): susceptible | lysed cells detected ([1]; 70 minutes, qPCR, of the 96 partitions): 19 | treated EINAPV (fraction extracellular), alternative estimate ([2]; 1.0 μg/mL ETP, 40 minutes, alternative cell estimate, reference EINAPV 1/6): 1/7 | intact cells in treated condition (alternative estimate) [2, 3]: 6 | killed cells in treated condition (alternative estimate) [2, 3]: 1 | susceptibility call ([2]; 1.0 μg/mL ETP, 40 minutes, p-value vs 0.05 threshold): resistant | intact cells in treated condition at time of filtration (estimate) [2, 4]: 3 | killed cells in treated condition at time of filtration (estimate) [2, 4]: 1 | treated EINAPV (fraction extracellular) ([2]; 1.0 μg/mL ETP, 40 minutes, simple estimate, reference EINAPV 1/4): 1/4 | Both (number of wells) [2, 5]: 0 | Empty (number of wells) [2, 5]: 44 | Extracellular only (number of wells) [2, 5]: 1 | Intracellular only (number of wells) [2, 5]: 3
